Results taken from patent US8048899B2, “Compounds which selectively modulate the CB2 receptor” (Boehringer Ingelheim International GmbH, priority 2008, dated 2011).

Tests used:
human CB2R = biological target: T1, human CB2R (Homo sapiens, UniProt P34972); experiment: CB2R mediated modulation of cAMP synthesis; format: cell-based; details: CHO cells expressing human CB2R; inhibition of forskolin-stimulated cAMP synthesis; read-out: CB2 EC50
T1 construct: host or cells: CHO cells
Experimental: B. CB2R Mediated Modulation of cAMP Synthesis:
Compounds of the invention are evaluated for their CB2 agonist or inverse agonistic activity in accordance with the following experimental method.
(§1) CHO cells expressing human CB2R (Euroscreen) are plated at a density of 5000 cells per well in 384 well plates and incubated overnight at 37° C. After removing the media, the cells are treated with test compounds diluted in stimulation buffer containing 1 mM IBMX, 0.25% BSA and 10 uM Forskolin. The assay is incubated for 30 minutes at 37° C. Cells are lysed and the cAMP concentration is measured using DiscoverX-XS cAMP kit, following the manufacturer's protocol. In this setting, agonists will decrease forskolin induced production of cAMP while inverse agonists will further increase forskolin induced production of cAMP. EC50 of agonists are calculated as follows. The maximal amount of cAMP produced by forskolin compared to the level of cAMP inhibited by 1 uM CP55940 is defined as 100%. […] Data is analyzed using a four-parameter logistic model. (Model 205 of XLfit 4.0).

human CB1R = biological target: T2, human CB1R (Homo sapiens, UniProt P21554); experiment: CB1R mediated modulation of cAMP synthesis; format: cell-based; details: CHO cells expressing human CB1R; inhibition of forskolin-stimulated cAMP synthesis; read-out: CB1 EC50
T2 construct: host or cells: CHO cells
Experimental: C. CB1R Mediated Modulation of cAMP Synthesis:
Compounds of the invention are evaluated for their CB1 agonist or inverse agonistic activity in accordance with the following experimental method.
as §1, with “CB1R” for “CB2R”

T1 sequence (P34972 whole entry): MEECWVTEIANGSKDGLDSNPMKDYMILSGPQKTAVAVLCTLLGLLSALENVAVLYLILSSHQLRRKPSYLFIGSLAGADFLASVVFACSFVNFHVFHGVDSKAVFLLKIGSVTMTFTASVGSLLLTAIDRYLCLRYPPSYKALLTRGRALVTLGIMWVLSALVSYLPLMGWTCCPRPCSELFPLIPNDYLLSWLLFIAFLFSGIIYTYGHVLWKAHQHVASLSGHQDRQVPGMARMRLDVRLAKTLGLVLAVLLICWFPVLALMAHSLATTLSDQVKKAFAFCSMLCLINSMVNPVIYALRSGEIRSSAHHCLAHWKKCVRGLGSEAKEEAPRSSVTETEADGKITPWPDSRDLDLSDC
T2 sequence (P21554 whole entry): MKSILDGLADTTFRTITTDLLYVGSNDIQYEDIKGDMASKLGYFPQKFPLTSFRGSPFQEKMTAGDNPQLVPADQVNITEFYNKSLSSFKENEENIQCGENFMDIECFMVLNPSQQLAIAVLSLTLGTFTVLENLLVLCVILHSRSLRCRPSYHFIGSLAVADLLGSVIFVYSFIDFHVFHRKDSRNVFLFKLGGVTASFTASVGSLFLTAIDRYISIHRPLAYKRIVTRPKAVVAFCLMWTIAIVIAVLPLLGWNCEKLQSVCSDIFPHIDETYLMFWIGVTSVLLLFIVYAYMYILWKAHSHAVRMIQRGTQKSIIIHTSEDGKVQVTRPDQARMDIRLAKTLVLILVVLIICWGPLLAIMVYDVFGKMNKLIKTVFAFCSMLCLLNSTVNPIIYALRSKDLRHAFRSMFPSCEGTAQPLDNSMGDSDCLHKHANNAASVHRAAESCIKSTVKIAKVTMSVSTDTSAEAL

SMILES	EC50 (human CB2R) [nM]	EC50 (human CB1R) [nM]
CC(C)(CO)c1cc(NC(=O)C(C)(C)S(=O)(=O)CC2CCOCC2)on1	39	> 50000
CC(C)(CO)c1cc(NC(=O)C(C)(C)S(=O)(=O)CCCC(F)(F)F)on1	15	> 20000
COc1ccc(-c2nnc(NC(=O)C(C)(C)S(=O)(=O)CC3(C)CCOCC3)[nH]2)cc1	186	> 20000
CC(C)(C(=O)Nc1nnc(-c2ccc(OC(F)(F)F)cc2)[nH]1)S(=O)(=O)CC1CCOCC1	337	> 20000
CC(C)(C(=O)Nc1nnc(-c2ccc(OC(F)(F)F)cc2)[nH]1)S(=O)(=O)C1CCOCC1	194	> 20000
CC(C)(CO)c1cc(NC(=O)C(C)(C)S(=O)(=O)c2cccc(F)c2F)on1	172	> 20000
CCOc1ccc(-c2nnc(NC(=O)C(C)(C)S(=O)(=O)C3CCOCC3)[nH]2)cc1	208	> 50000
CC(C)(CO)c1cc(NC(=O)C(C)(C)S(=O)(=O)CC2CCOCC2)no1	208	> 50000
CC(C)(C(=O)Nc1cc(C2(CO)CC2)no1)S(=O)(=O)C1CCOCC1	117	> 50000
COCC(C)(C)c1cc(NC(=O)C(C)(C)S(=O)(=O)CC2CCOCC2)no1	137	> 20000
CC(C)(C(=O)Nc1cc(C2(CO)CC2)no1)S(=O)(=O)CCCC(F)(F)F	247	> 50000
COCC(C)(C)c1cc(NC(=O)C(C)(C)S(=O)(=O)CC2CC2)on1	120	> 50000
CC(C)(CO)c1cc(NC(=O)C2(S(=O)(=O)C3CCOCC3)CCC2)on1	212	> 50000
CC(C)(C(=O)Nc1nc(-c2cccc(O)c2)n[nH]1)S(=O)(=O)CC1CC1	283	> 50000
CC(C)(C(=O)Nc1nc(-c2cccc(O)c2)n[nH]1)S(=O)(=O)C1CCOCC1	130	> 50000
CC[C@H](C)S(=O)(=O)C(C)(C)C(=O)Nc1cc(C(C)(C)CO)no1	118	> 50000
